In paper PMC9292375, “Structural basis of an epitope tagging system derived from Haloarcula marismortui bacteriorhodopsin I D94N and its monoclonal antibody GD‐26” (The Febs Journal, 2021):
Values joined by “and” are separate entries in the source; they are usually repeats but may differ in a detail not shown here. Identical values can stand only once. “Also recorded” adds a separate entry of the source. Where a SMILES comes first, the peptide text is derived from it.

Columns and labels:
[1] = Protease resistance of the TD tag during expression and purification; conditions: without protease inhibitors; tag remains attached and detectable after expression and purification from bacterial and mammalian cell systems
[2] = molecular target: G196; parameters: method as in PMID 28266535; conditions: anti‐tag antibody G196; read-out: Affinity (K D); cited from earlier work
[3] = molecular target: M2; conditions: read-out: Affinity (K D); anti‐tag antibody M2; cited from earlier work
[4] = molecular target: 9E10; conditions: anti‐tag antibody 9E10; read-out: Affinity (K D); cited from earlier work
[5] = molecular target: GD‐26 Fab; assay: ITC titration of peptides or TD‐tagged eGFP into GD‐26 Fab; format: binding, mouse; conditions: 25 °C, Tris buffer pH 7.5, engineered synthetic peptides, single experiment (n = 1)
Protocol: The titration experiments were performed with a MicroCal PEAQ‐ITC Automated (Malvern Panalytical, Malvern, UK) at 25 °C. The ITC sample cell contained 200 μL of GD‐26 IgG or GD‐26 Fab in the Tris buffer (50 mM Tris, 150 mM NaCl, pH 7.5). In the syringe, 40 μL of synthetic peptides (peptide III–V) or TD‐tagged eGFP in the same Tris buffer was injected into the sample cell using 20 injections (0.4 μL for the first injection). Prior to data analysis, heats of dilution generated by injecting the peptide solution into the buffer in the sample cell were subtracted from the experimental data. The experimental raw data were analysed using the MicroCal PEAQ‐ITC Analysis software package provided with the instrument. The first data point was removed for fitting the data to a one‐set‐of‐sites model. After entering sample concentrations, the inbuilt function for fitting is operated by clicking iteration button until a good fit to the experimental data points of the isotherms is achieved and Chi‐squared is no longer decreasing. The final fitting parameters including K D, changes in enthalpy (ΔH), entropy (ΔS) and Gibb's free energy (ΔG) and binding stoichiometry were generated by the same software.

[6] = molecular target: Nanobody ALFA; parameters: method as in PMID 31562305; conditions: read-out: Affinity (K D); cited from earlier work
[7] = molecular target: 4B2; parameters: method as in PMID 24480187; conditions: anti‐tag antibody 4B2; read-out: Affinity (K D); cited from earlier work
[8] = molecular target: T1, TD peptide (GTGATPADD), peptide V from the C terminus of HmBRI D94N (Haloarcula marismortui HmBRI C terminus …); assay: ITC; synthetic peptide in the syringe titrated into GD-26 Fab or GD-26 IgG (10 μM) in the cell; 25 °C; 50 mM Tris, 150 mM NaCl, pH 7.5; one-set-of-sites model; conditions: both partners purified
T1 construct: nine residues at the C terminus of Haloarcula marismortui bacteriorhodopsin I (HmBRI); residue numbers 1-9 count on: the TD peptide; also called TD tag; wild-type TD peptide; source: synthetic peptide
T1 chain: GTGATPADD

[9] = Storage stability of GD‐26 IgG; format: physicochemical; conditions: stored at 4 °C in Tris buffer

C[C@H](NC(=O)CNC(=O)[C@@H](NC(=O)CN)[C@@H](C)O)C(=O)N[C@H](C(=O)N1CCC[C@H]1C(=O)N[C@@H](C)C(=O)N[C@@H](CC(=O)O)C(=O)N[C@@H](CC(=O)O)C(=O)O)[C@@H](C)O [TD] (H-GTGATPADD-OH)
cellular protease resistance and proteolytic stability [1]: good cellular protease resistance and proteolytic stability

DLVPR
Kd [2]: 1.25 nM

DYKDDDDK [FLAG]
Kd [3]: 3 to 31 nM

EQKLISEEDL [c‐Myc]
Kd [4]: 2.2 to 560 nM

GTGATPA [C2, engineered TD peptide, Asp9 and Asp8 depleted]
K D [5]: complete loss of binding; also recorded: No binding

SRLEEELRRRLTE [ALFA]
Kd [6]: 0.026 nM

TPADD [N4, engineered TD peptide, Gly1 to Ala4 deleted]
K D [5]: completely diminished its capability to bind; also recorded: No binding

YPYDVPDYA [HA]
Kd [7]: 1.6 nM

B1: GD-26 IgG (recombinant monoclonal antibody GD-26, mouse IgG2a) (antibody, V domains shown)
VH: QVQLRQSGPELVKPGASVKMSCRASGYTFTNYNIHWVRQRPGQGLEWIGWIYPVDGTTKYNEKFKDKTTLTSDKSSSTAYMSLSGLTSEDSAIYFCARGLDNWGQGTSVTVSS
VL: DVVLTQTPLSLSVTIGQPASISCRSSQRLLYSNGKTYLNWFQQRPGQAPKYLMFQVSKLGPGIPARFSGSGSETDFTLKISRVEAEDLGVYYCFQGTFFPHTFGGGTKLEMK
notes: PDB 7DOH); Mouse IgG2a isotype; the same light-chain plasmid as for the Fab; source: Expi293F, transient co-transfection, secreted; purified (HiTrap Protein G, Superdex 200 gel filtration); copies: 2 + 2
Kd [8]: 22.6 nM and 18.8 nM | dH [8]: -12.2 kcal/mol | stoichiometry N [8]: 2.28 sites and 2.27 sites

B2: GD‐26 IgG: recombinant monoclonal antibody, mouse IgG2a isotype, raised against HmBRI D94N (antibody, V domains shown)
VH: B1 VH
VL: B1 VL
long‐term stability on storage [9]: over a year
